Source: paper PMC11830721 (Frontiers in Pharmacology, 2025)

Assays:
Assay in all cases: SelectScreen kinase selectivity assay
Format in all cases: biochemical
Conditions in all cases: ten-dose 0.25–128 μM
ABL1 = ABL1 (Homo sapiens, UniProt P00519)
Experimental: (§1) Following the standardized kinase activity assay protocol as previously reported, we utilized the SelectScreen Kinase Profiling Service (Thermo Fisher Scientific) to determine the kinase selectivity profile of FLIN-4 ([van der Wel et al., 2020]). Through a ten-dose dilution series ranging from 0.25 μM to 128 μM in dose-response experiments, we precisely measured the inhibitory effect of FLIN-4 on the substrate phosphorylation reactions catalyzed by a panel of kinases, and thus ascertained the half-maximal inhibitory concentrations (IC50) for each kinase.

ALK = ALK (Homo sapiens, UniProt Q9UM73)
Experimental: as §1

BLK = BLK (Homo sapiens, UniProt P51451)
Experimental: as §1

BTK = BTK (Homo sapiens, UniProt Q06187)
Experimental: as §1

CDK1 = CDK1 (Homo sapiens, UniProt P06493)
Experimental: as §1

CDK2 = CDK2 (Homo sapiens, UniProt P24941)
Experimental: as §1

CSF1R = CSF1R (Homo sapiens, UniProt P07333)
Experimental: as §1

DDR2 = DDR2 (Homo sapiens, UniProt Q16832)
Experimental: as §1

EPHA1 = EPHA1 (Homo sapiens, UniProt P21709)
Chain of EPHA1 (P21709 26-976): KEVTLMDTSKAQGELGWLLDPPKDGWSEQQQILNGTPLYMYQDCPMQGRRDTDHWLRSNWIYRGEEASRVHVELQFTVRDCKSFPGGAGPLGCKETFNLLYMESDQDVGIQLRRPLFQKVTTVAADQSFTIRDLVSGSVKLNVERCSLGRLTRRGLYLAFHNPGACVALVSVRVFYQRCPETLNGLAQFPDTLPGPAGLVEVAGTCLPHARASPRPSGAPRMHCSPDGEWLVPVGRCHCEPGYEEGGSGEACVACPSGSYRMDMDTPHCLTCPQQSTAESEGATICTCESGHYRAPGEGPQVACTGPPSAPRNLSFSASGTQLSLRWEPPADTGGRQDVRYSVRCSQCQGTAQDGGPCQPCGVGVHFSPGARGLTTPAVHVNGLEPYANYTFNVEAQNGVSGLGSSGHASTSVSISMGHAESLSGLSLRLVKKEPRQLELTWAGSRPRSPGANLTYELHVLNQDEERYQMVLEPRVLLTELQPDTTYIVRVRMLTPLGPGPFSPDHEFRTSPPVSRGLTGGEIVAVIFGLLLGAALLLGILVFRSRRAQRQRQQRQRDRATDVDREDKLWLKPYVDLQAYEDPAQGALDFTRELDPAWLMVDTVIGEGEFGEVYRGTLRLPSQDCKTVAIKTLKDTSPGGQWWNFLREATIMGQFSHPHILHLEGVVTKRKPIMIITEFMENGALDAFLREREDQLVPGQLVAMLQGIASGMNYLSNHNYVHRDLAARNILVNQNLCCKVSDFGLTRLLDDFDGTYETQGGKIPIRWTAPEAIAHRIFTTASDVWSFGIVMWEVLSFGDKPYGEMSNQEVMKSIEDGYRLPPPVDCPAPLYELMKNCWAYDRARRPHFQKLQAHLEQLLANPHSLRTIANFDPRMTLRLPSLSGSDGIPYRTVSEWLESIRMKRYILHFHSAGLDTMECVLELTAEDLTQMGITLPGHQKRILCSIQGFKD
Experimental: as §1

EPHA2 = EPHA2 (Homo sapiens, UniProt P29317)
Experimental: as §1

EPHA3 = EPHA3 (Homo sapiens, UniProt P29320)
Experimental: as §1

EPHA4 = EPHA4 (Homo sapiens, UniProt P54764)
Experimental: as §1

EPHA5 = EPHA5 (Homo sapiens, UniProt P54756)
Experimental: as §1

EPHB1 = EPHB1 (Homo sapiens, UniProt P54762)
Experimental: as §1

EPHB2 = EPHB2 (Homo sapiens, UniProt P29323)
Experimental: as §1

EPHB4 = EPHB4 (Homo sapiens, UniProt P54760)
Experimental: as §1

ERBB2 = ERBB2 (Homo sapiens, UniProt P04626)
Experimental: as §1

FGFR2 = FGFR2 (Homo sapiens, UniProt P21802)
Experimental: as §1

FGFR3 = FGFR3 (Homo sapiens, UniProt P22607)
Experimental: as §1

FGFR4 = FGFR4 (Homo sapiens, UniProt P22455)
Chain of FGFR4 (P22455 22-802): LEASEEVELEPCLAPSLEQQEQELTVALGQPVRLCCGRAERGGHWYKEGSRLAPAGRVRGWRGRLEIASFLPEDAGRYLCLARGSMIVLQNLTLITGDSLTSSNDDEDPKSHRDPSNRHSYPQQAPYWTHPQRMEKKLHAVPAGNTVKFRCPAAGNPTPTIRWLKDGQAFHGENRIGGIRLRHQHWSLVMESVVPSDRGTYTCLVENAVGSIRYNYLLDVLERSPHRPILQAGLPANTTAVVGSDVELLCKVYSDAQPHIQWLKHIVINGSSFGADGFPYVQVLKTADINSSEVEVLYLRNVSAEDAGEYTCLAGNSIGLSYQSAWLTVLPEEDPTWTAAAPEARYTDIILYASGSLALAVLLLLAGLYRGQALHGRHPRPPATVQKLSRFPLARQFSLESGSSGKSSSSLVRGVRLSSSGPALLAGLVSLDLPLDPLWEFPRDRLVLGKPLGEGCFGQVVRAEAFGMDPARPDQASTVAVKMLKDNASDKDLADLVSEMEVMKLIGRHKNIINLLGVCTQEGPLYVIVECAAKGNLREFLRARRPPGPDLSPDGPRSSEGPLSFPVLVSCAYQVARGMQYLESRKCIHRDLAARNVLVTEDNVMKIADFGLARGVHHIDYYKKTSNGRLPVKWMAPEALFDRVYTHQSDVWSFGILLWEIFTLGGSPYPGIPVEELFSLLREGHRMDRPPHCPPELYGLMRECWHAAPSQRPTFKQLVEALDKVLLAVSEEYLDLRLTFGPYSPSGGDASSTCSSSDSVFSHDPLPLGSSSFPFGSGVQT
Experimental: as §1

FGR = FGR (Homo sapiens, UniProt P09769)
Experimental: as §1

FRK = FRK (Homo sapiens, UniProt P42685)
Experimental: as §1

HCK = HCK (Homo sapiens, UniProt P08631)
Experimental: as §1

IGF1R = IGF1R (Homo sapiens, UniProt P08069)
Chain of IGF1R (P08069 31-1367): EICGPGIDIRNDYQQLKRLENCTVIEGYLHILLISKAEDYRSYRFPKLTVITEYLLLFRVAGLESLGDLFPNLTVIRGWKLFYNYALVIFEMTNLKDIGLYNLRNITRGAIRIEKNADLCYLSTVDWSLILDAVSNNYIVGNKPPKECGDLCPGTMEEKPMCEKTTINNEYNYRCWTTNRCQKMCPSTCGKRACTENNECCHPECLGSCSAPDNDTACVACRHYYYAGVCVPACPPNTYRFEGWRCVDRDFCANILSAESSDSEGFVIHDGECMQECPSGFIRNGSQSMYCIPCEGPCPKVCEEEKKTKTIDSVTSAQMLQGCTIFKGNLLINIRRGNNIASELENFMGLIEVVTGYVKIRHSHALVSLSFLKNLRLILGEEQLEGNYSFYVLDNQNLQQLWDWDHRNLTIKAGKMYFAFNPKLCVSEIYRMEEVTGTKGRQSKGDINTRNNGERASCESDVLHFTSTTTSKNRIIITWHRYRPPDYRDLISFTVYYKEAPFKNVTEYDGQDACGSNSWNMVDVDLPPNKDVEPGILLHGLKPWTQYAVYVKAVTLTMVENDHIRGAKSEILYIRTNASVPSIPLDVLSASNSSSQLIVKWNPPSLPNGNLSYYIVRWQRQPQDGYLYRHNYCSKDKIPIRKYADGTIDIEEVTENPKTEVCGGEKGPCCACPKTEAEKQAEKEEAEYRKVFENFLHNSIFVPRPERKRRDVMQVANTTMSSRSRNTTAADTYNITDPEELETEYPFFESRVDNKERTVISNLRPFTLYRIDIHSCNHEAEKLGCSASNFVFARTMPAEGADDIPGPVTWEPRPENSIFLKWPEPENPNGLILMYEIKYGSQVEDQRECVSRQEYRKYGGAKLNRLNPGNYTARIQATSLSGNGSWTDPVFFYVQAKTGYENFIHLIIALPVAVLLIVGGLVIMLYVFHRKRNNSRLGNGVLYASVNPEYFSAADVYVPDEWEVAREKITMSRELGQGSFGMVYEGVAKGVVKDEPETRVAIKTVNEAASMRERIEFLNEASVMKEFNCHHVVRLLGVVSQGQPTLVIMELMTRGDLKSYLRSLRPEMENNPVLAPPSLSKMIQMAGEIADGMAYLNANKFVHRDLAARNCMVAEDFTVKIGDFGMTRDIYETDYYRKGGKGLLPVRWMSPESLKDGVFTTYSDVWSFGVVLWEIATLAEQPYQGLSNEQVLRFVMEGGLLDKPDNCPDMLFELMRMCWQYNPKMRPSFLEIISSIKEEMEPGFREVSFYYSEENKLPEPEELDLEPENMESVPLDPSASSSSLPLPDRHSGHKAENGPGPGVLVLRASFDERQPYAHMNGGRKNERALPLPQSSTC
Experimental: as §1

INSRR = INSRR (Homo sapiens, UniProt P14616)
Experimental: as §1

JAK1 = JAK1 (Homo sapiens, UniProt P23458)
Experimental: as §1

JAK3 = JAK3 (Homo sapiens, UniProt P52333)
Experimental: as §1

KIT = KIT (Homo sapiens, UniProt P10721)
Experimental: as §1

LTK = LTK (Homo sapiens, UniProt P29376)
Experimental: as §1

LYN = LYN (Homo sapiens, UniProt P07948)
Experimental: as §1

MERTK = MERTK (Homo sapiens, UniProt Q12866)
Experimental: as §1

MET = MET (Homo sapiens, UniProt P08581)
Experimental: as §1

MUSK = MUSK (Homo sapiens, UniProt O15146)
Experimental: as §1

NTRK1 = NTRK1 (Homo sapiens, UniProt P04629)
Experimental: as §1

NTRK2 = NTRK2 (Homo sapiens, UniProt Q16620)
Experimental: as §1

NTRK3 = NTRK3 (Homo sapiens, UniProt Q16288)
Chain of NTRK3 (Q16288 32-839): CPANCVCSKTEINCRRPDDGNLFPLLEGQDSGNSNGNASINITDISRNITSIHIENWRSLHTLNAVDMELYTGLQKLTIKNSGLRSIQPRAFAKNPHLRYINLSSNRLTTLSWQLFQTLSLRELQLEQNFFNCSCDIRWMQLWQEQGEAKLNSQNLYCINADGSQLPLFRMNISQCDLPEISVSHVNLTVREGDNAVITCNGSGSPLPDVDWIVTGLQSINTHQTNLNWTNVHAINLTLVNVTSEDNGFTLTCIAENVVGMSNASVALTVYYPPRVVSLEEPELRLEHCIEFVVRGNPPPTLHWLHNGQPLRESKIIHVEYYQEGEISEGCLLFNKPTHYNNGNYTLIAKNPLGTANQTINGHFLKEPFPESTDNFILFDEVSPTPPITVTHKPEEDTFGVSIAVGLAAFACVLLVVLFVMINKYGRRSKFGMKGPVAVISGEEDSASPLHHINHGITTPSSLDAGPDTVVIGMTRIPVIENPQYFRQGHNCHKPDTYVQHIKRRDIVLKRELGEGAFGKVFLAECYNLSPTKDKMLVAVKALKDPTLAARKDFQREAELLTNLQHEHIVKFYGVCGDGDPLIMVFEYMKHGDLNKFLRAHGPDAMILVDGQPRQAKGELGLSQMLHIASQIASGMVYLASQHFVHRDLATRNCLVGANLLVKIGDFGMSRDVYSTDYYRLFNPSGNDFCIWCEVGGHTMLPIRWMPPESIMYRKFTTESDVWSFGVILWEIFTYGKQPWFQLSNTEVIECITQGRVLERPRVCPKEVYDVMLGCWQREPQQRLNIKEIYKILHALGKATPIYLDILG
Experimental: as §1

PDGFRA = PDGFRA (Homo sapiens, UniProt P16234)
Experimental: as §1

PTK2 = PTK2 (Homo sapiens, UniProt Q05397)
Chain of PTK2 (Q05397 whole entry): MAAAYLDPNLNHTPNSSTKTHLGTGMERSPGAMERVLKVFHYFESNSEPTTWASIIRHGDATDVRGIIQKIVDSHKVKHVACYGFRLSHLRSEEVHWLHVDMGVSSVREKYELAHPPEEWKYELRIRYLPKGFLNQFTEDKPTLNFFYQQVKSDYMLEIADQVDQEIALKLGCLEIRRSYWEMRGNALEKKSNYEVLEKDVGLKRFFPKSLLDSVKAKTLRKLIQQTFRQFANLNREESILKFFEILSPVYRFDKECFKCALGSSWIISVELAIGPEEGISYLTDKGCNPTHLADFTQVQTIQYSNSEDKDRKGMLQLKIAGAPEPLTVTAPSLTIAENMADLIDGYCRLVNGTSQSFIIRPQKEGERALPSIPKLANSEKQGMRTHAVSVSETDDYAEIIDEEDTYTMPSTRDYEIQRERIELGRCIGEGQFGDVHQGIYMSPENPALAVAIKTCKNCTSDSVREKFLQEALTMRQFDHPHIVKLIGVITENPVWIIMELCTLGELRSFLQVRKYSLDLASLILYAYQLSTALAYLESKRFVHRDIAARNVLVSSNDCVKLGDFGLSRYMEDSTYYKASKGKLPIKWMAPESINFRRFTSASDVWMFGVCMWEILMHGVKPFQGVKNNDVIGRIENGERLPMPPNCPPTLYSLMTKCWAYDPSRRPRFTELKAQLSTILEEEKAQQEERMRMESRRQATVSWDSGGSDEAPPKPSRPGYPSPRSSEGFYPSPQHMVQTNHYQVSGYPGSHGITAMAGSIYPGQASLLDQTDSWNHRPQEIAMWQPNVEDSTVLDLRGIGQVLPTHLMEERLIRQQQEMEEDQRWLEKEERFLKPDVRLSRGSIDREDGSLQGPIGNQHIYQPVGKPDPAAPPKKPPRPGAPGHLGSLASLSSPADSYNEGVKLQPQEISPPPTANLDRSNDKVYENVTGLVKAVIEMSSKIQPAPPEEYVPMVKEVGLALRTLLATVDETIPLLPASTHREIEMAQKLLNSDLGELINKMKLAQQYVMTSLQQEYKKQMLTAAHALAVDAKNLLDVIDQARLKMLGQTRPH
Experimental: as §1

ROS1 = ROS1 (Homo sapiens, UniProt P08922)
Experimental: as §1

TYRO3 = TYRO3 (Homo sapiens, UniProt Q06418)
Experimental: as §1

YES1 = YES1 (Homo sapiens, UniProt P07947)
Experimental: as §1

ZAP70 = ZAP70 (Homo sapiens, UniProt P43403)
Experimental: as §1

Measured: IC50

CCc1nc(C(N)=O)c(Nc2ccc(N3CCC(Nc4ccccc4)CC3)c(OC)c2)nc1NC1CCOC(C(O)CO)C1 (stereo not drawn) [FLIN-4]
> 10 µM: ABL1 | ALK | BLK | BTK | CDK1 | CDK2 | CSF1R | DDR2 | EPHA1 | EPHA2 | EPHA3 | EPHA4 | EPHA5 | EPHB1 | EPHB2 | EPHB4 | ERBB2 | FGFR2 | FGFR3 | FGFR4 | FGR | FRK | HCK | IGF1R | INSRR | JAK1 | JAK3 | KIT | LTK | LYN | MERTK | MET | MUSK | NTRK1 | NTRK2 | NTRK3 | PDGFRA | PTK2 | ROS1 | TYRO3 | YES1 | ZAP70
